In USRE38576E1, “Stabilized aspirin compositions and method of preparation for oral and topical use” (priority 2000, dated 2004):

Experiments:
[1] = pH of KSA / KASA formulas; type: physicochemical
Description: In 50 ml water, 37 gms KOH are mixed with 76 gms SA. […] Administration is by gradual ingestion by sipping. A much higher dose of 2 gm KSA can be administered as needed using two 1 gm doses separated by an interval of time so that the doses overlap closely.
An example of a topical KSA is as follows: Using the supersaturated KSA formula of Example 1, a topical formula was prepared as follows: 225 ml Aloe Vera Gel was mixed with 2½ ml liquid castile soap (Dr. Bronner's was used), and 2½ ml vegetable glycerin. Dry ingredients of 900 mg citric acid, 600 mg guar gum and 14 gm dehydrated KSA are separately mixed.

[2] = dimethyl isosorbate as solvent; cited from earlier work
[3] = 1 gm dehydrated product mixed with 225 ml water

SMILES | pH [1, 3] | pH ([1]; concentrated solution as prepared, before dehydration) | concentration of ASA achieved in solution [2]
O=C(O)c1ccccc1O.[K] [KSA, potassium salicylic acid] | 8.90 | 12.0-13.0 | 
CC(=O)Oc1ccccc1C(=O)[O-].[K+] [KASA, potassium acetylsalicyclic acid] | 8.42 |  | 
CC(=O)Oc1ccccc1C(=O)O [ASA, acetylsalicylic acid] |  |  | 280 mg of ASA/ml
